{"source": "patent US20190117770A1", "about": "“USES OF IMMUNOCONJUGATES TARGETING CD138” (Biotest AG, priority 2011, published 2019)", "key": {"[1]": {"system": "plasma cell myeloma cell line L363", "assay_type": "in vivo, NOD/SCID mice", "settings": "4 mg/kg BT062 alone, once weekly", "procedure": "In this model, a highly aggressive CD138 expressing plasma cell myeloma cell line L363 was subcutaneously implanted into NOD/SCID mice. Treatment started when tumors reached a size of approx. 100 mm^3. […] Tumor size was measured once weekly."}, "[2]": {"system": "human derived breast cancer model with CD138 IHC score 1-2", "assay": "Breast cancer model, CD138 IHC score 1-2", "assay_type": "in vivo, NMRI nude mice", "settings": "1-4 mg/kg once weekly (FIG. 37)", "source_text": "No difference in the treatment regimens was observed. The results are shown in terms of the effect on the mean relative tumor volume in the model relative to an intravenous administration of PBS. For the calculation of the median relative tumor volume on day, see FIG. 33."}, "[3]": {"system": "Jurkat", "assay": "Sensitivity of cell lines towards BT062", "assay_type": "cell-based", "settings": "T cell lymphoma"}, "[4]": {"system": "OPM-2 cells", "assay": "FACS analysis of binding", "assay_type": "cell-based", "settings": "FIG. 6", "source_text": "OPM-2 cells are plasma cell leukaemia cell lines showing highly expressing CD138. […] The cells were washed and CD138-bound antibody or conjugates were detected using a fluorescence-labelled secondary antibody in FACS analysis. The mean fluorescence measured in these experiments was plotted against the antibody concentration."}, "[5]": {"system": "CD138+ MOLP-8 cells", "assay": "WST cell viability assay", "assay_type": "cell-based"}, "[6]": {"system": "MOLP 8 human myeloma cells"}, "[7]": {"system": "primary mammary tumor of a patient", "assay": "Mammary carcinoma xenograft", "assay_type": "in vivo, NMRI (nude) mice", "settings": "for T/C: day 21"}, "[8]": {"system": "pancreatic tumor tissue PAXF 736", "assay": "Pancreas carcinoma xenograft", "assay_type": "in vivo, NMRI mice", "settings": "for T/C (%): day 52", "procedure": "(§1) These tumors display similar characteristics as the patient tumors, since they are passaged in mice at low numbers, to retain original characteristics.\nTumor diameters have been measured two times a week. Tumor volumes were calculated according to the formula axbxb/2 where “a” is the longest axis and “b” the perpendicular axis thereto.\nTumor inhibition for a particular day (T/C in %) was calculated from the ratio of the median RTV (relative tumor volume) values of test versus control groups multiplied by 100%."}, "[9]": {"system": "metastatic patient tissues derived from a bladder tumor", "assay": "Metastatic bladder tumor xenograft", "assay_type": "in vivo, NMRI (nude) mice", "settings": "both dose groups (4 mg/kg and 23.85 mg/kg once per week)", "source_text": "as §1\nTo investigate metastatic tumors, NMRI (nude) mice were implanted with a metastatic patient tissues derived from a bladder tumor (determined via IHC analysis as CD138 strong positive)."}, "[10]": {"assay": "Half life in human plasma ex vivo", "assay_type": "in vitro ADME"}, "[11]": {"system": "human derived breast cancer model with CD138 IHC score 2-3", "assay": "Breast cancer model, CD138 IHC score 2-3", "assay_type": "in vivo, NMRI nude mice", "settings": "8 mg/kg once weekly", "source_text": "The results are shown in terms of the effect on the mean relative tumor volume in the model relative to an intravenous administration of PBS. For the calculation of the median relative tumor volume on day, see FIG. 33."}, "[12]": {"system": "MOLP8 multiple myeloma cells", "assay": "MOLP8 xenograft, combination BT062 and VELCADE", "assay_type": "in vivo, mice", "source_text": "The ACTIVITY RATING is another measurement for the effects of a combination. This rating is based on the Log10 cell kill\nwhere (T-C) or tumor growth delay, is the median time in days required for the treatment group (T) and the control group (C) tumours, to reach a predetermined size (600 mm^3)."}}, "note": "Read-outs that look alike come from different tables or passages of the source.", "data": [{"substance": "BT062", "values": [{"measurement": "tumor growth", "setting": "[1]", "value": "active in reducing the tumor growth"}, {"measurement": "tumor response", "setting": "[2]", "value": "did not respond"}, {"measurement": "IC50", "setting": "[3]", "value": 39, "unit": "nM"}, {"measurement": "binding characteristics", "setting": "[4]", "value": "very similar binding characteristics"}, {"measurement": "cytotoxicity after preincubation with molar excess of unconjugated nBT062", "setting": "[5]; FIG. 7 (D)", "value": "substantially blocked"}, {"measurement": "cytotoxic activity", "setting": "[5]; five days, FIG. 7", "value": "very similar"}, {"measurement": "Regressions Complete", "setting": "[6]; BT062 100 ug/kg", "value": "0/6"}, {"measurement": "Regressions Partial", "setting": "[6]; BT062 100 ug/kg", "value": "0/6"}, {"measurement": "Result", "setting": "[6]; BT062 100 ug/kg", "value": "Active"}, {"measurement": "T/C (%) (DAY 17)", "setting": "[6]; BT062 100 ug/kg", "value": 35, "unit": "%"}, {"measurement": "Tumor free survivors day 77", "setting": "[6]; BT062 100 ug/kg", "value": "0/6"}, {"measurement": "Regressions Complete", "setting": "[6]; BT062 200 ug/kg", "value": "0/6"}, {"measurement": "Regressions Partial", "setting": "[6]; BT062 200 ug/kg", "value": "0/6"}, {"measurement": "Result", "setting": "[6]; BT062 200 ug/kg", "value": "Active"}, {"measurement": "T/C (%) (DAY 17)", "setting": "[6]; BT062 200 ug/kg", "value": 14, "unit": "%"}, {"measurement": "Tumor free survivors day 77", "setting": "[6]; BT062 200 ug/kg", "value": "0/6"}, {"measurement": "Regressions Complete", "setting": "[6]; BT062 400 ug/kg", "value": "1/6"}, {"measurement": "Regressions Partial", "setting": "[6]; BT062 400 ug/kg", "value": "4/6"}, {"measurement": "Result", "setting": "[6]; BT062 400 ug/kg", "value": "highly active (A Log10 cell kill of higher than 2.8)"}, {"measurement": "T/C (%) (DAY 17)", "setting": "[6]; BT062 400 ug/kg", "value": 9, "unit": "%"}, {"measurement": "Tumor free survivors day 77", "setting": "[6]; BT062 400 ug/kg", "value": "0/6"}, {"measurement": "mice with complete remission without tumor regrowth", "setting": "[7]; 1 mg/kg once weekly", "value": "3/7"}, {"measurement": "mice with partial remission", "setting": "[7]; 1 mg/kg once weekly", "value": "2/7"}, {"measurement": "tumor response", "setting": "[7]; 1 mg/kg once weekly", "value": "tumor stasis"}, {"measurement": "T/C", "setting": "[7]; 13.25 mg/kg/4 mg/kg", "value": 0.0}, {"measurement": "T/C", "setting": "[7]; 23.85 mg/kg", "value": 0.0}, {"measurement": "tumor response", "setting": "[7]; 4 and 2 mg/kg once weekly (FIG. 35)", "value": "complete remission"}, {"measurement": "tumor regrowth in treatment free observation period", "setting": "[7]; 39 days after the last administration", "value": "no tumor regrowth"}, {"measurement": "complete remission achieved after", "setting": "[7]; FIG. 9", "value": 21, "unit": "days"}, {"measurement": "T/C value", "setting": "[7]; both treatment groups", "value": "below 10%"}, {"measurement": "influence on body weight after each injection", "setting": "[7]; mouse, in vivo", "value": "no influence on body weight"}, {"measurement": "complete remission obtained, days after tumor implantation", "setting": "[8]; 13.25 mg/kg", "value": 35, "unit": "days"}, {"measurement": "mice alive after 52 days", "setting": "[8]; 13.25 mg/kg", "value": "8/8"}, {"measurement": "T/C (%)", "setting": "[8]; 13.25 mg/kg once weekly", "value": 0.0, "unit": "%"}, {"measurement": "complete remission obtained, days after tumor implantation", "setting": "[8]; 23.85 mg/kg", "value": 28, "unit": "days"}, {"measurement": "T/C (%)", "setting": "[8]; 23.85 mg/kg once weekly", "value": 0.0, "unit": "%"}, {"measurement": "tumor regrowth in treatment free observation phase", "setting": "[8]; both treatment groups", "value": "no tumor regrowth"}, {"measurement": "side effects", "setting": "[8]; mouse, in vivo", "value": "No side effects"}, {"measurement": "tumor response", "setting": "[9]", "value": "Complete remission"}, {"measurement": "plasma half life", "setting": "[10]", "value": 14, "unit": "days"}, {"measurement": "tumor response", "setting": "[11]", "value": "complete remission"}, {"measurement": "(T − C)", "setting": "[12]; BT062 100 ug/kg", "value": 5.5, "unit": "days"}, {"measurement": "Regressions Complete", "setting": "[12]; BT062 100 ug/kg", "value": "0/6"}, {"measurement": "Regressions Partial", "setting": "[12]; BT062 100 ug/kg", "value": "0/6"}, {"measurement": "Result", "setting": "[12]; BT062 100 ug/kg", "value": "Inactive"}, {"measurement": "Tumor free survivors day 67", "setting": "[12]; BT062 100 ug/kg", "value": "0/6"}, {"measurement": "log cell kill", "setting": "[12]; BT062 100 ug/kg", "value": 0.5}, {"measurement": "T/C (%)", "setting": "[12]; BT062 100 ug/kg, Day 1", "value": 43, "unit": "%"}, {"measurement": "(T − C)", "setting": "[12]; BT062 200 ug/kg", "value": 14.5, "unit": "days"}, {"measurement": "Regressions Complete", "setting": "[12]; BT062 200 ug/kg", "value": "0/6"}, {"measurement": "Regressions Partial", "setting": "[12]; BT062 200 ug/kg", "value": "1/6"}, {"measurement": "Result", "setting": "[12]; BT062 200 ug/kg", "value": "Active"}, {"measurement": "Tumor free survivors day 67", "setting": "[12]; BT062 200 ug/kg", "value": "0/6"}, {"measurement": "log cell kill", "setting": "[12]; BT062 200 ug/kg", "value": 1.3}, {"measurement": "T/C (%)", "setting": "[12]; BT062 200 ug/kg, Day 1", "value": 11, "unit": "%"}, {"measurement": "(T − C)", "setting": "[12]; BT062 400 ug/kg", "value": 31.5, "unit": "days"}, {"measurement": "Regressions Complete", "setting": "[12]; BT062 400 ug/kg", "value": "2/6"}, {"measurement": "Regressions Partial", "setting": "[12]; BT062 400 ug/kg", "value": "4/6"}, {"measurement": "Result", "setting": "[12]; BT062 400 ug/kg", "value": "highly active (A Log10 cell kill of higher than 2.8)"}, {"measurement": "Tumor free survivors day 67", "setting": "[12]; BT062 400 ug/kg", "value": "0/6"}, {"measurement": "log cell kill", "setting": "[12]; BT062 400 ug/kg", "value": 2.8}, {"measurement": "T/C (%)", "setting": "[12]; BT062 400 ug/kg, Day 1", "value": 7, "unit": "%"}, {"measurement": "(T − C)", "setting": "[12]; last line: BT062 400 ug/kg", "value": 36.5, "unit": "days"}, {"measurement": "Regressions Complete", "setting": "[12]; last line: BT062 400 ug/kg", "value": "0/6"}, {"measurement": "Regressions Partial", "setting": "[12]; last line: BT062 400 ug/kg", "value": "6/6"}, {"measurement": "Result", "setting": "[12]; last line: BT062 400 ug/kg", "value": "highly active (A Log10 cell kill of higher than 2.8)"}, {"measurement": "Tumor free survivors day 67", "setting": "[12]; last line: BT062 400 ug/kg", "value": "0/6"}, {"measurement": "log cell kill", "setting": "[12]; last line: BT062 400 ug/kg", "value": 3.2}, {"measurement": "T/C (%)", "setting": "[12]; last line: BT062 400 ug/kg Day 1", "value": 7, "unit": "%"}]}]}
